The values below come from patent US20110275670A1, “New Compounds VII” (priority 2008, published 2011).

The test system of experiment [1] is JEG-3 cells. As to the kind of experiment: JEG-3 protocol: [3H]-thymidine incorporation (leptin assay in non-recombinant system). Format: cell-based. Particulars: FIG. 4. The method, then:
In JEG-3 cells (choriocarcinoma cell line) leptin is able to stimulate proliferation up to 3 fold (Biol. Reprod. (2007) 76: 203-10). […] The radioactivity incorporated by the cells is an index of their proliferative activity and is measured in counts per minute (CPM) with a liquid scintillation beta counter.
This finding can be applied to test whether a compound is able to either reproduce the effect of leptin on cell proliferation (leptin receptor agonist mimetic) (i.e., a given compound will cause an increase in incorporated [^3H]-Thymidine by the cells) or to inhibit the effect of leptin (antagonistic effect) by preventing the leptin-mediated increase in [^3H]-thymidine incorporation.
This approach has the advantage of using a non-recombinant system and has reasonable reproducibility and robustness.
(Uptake of a labelled nucleoside into DNA is a usual measure of proliferation.)

Experiment [2] has as its system JEG-3 cells. Conditions: Biol. Reprod. (2007) 76: 203-10; cited from earlier work.

On to “Leptin: a hormone synthesized in fat cells that is believed to act in the hypothesis to reduce food intake and body weight”, for which the EC50 in experiment [1] (JEG-3 cells (choriocarcinoma cell line), read-out: EC50, concentration-dependent increase in [3H]-thymidine incorporation) was 2.1 nM. Besides, the “concentration of maximal effect on [3H]-thymidine incorporation” value in experiment [1] (JEG-3 cells) was 100 nM. Also, the stimulation of proliferation result in experiment [2] is listed as “up to 3 fold”.
